# Assay results as given in US20110092544A1, “FUNGICIDAL PYRIDINES” (E.I. DU PONT DE nemours and company, priority 2008, published 2011).
# What was measured:
# Assay type in all cases: in vivo
# [1] = system: Erysiphe graminis f. sp. tritici; assay: Test A: wheat powdery mildew, preventive spray on wheat seedlings, visual disease rating; conditions: for pest or weed control at 200 ppm: Blumeria graminis, 192 h
# Method in brief: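 Acetone/water (50/50) suspension with 250 ppm surfactant sprayed to run-off on wheat seedlings (200 ppm ≈ 500 g/ha); inoculated next day with E. graminis spore dust. Incubated 8 days at 20° C, then visually rated 0–100% disease control versus untreated controls; tests at 200 ppm or 40 ppm.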
# [2] = system: Puccinia recondite f. sp. tritici; assay: Test B: wheat leaf rust, preventive spray on wheat seedlings, visual disease rating; conditions: for pest or weed control at 200 ppm: 192 h
# Method in brief: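 Wheat seedlings were sprayed to run-off with compound suspension, 200 ppm (≈500 g/ha) or 40 ppm where marked, containing surfactant in acetone/water. Inoculation with Puccinia recondita spores followed one day later, then 24 h in saturated humidity at 20° C and 7 days at 20° C. Disease control was rated visually, 0–100% versus controls.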
# Septoria tritici = assay: Test C: wheat leaf blotch, preventive spray on wheat seedlings, visual disease rating
# Method in brief: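 Wheat seedlings sprayed to run-off with compound in acetone/water plus 250 ppm surfactant at 200 ppm (≈500 g/ha), or 40 ppm where marked; inoculated with Septoria tritici next day. Held saturated at 20 °C for 48 h, then 19 days at 20 °C; disease control rated visually 0–100 versus controls.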
# Septoria nodorum = assay: Test D: wheat glume blotch, preventive spray on wheat seedlings, visual disease rating; conditions: for pest or weed control at 200 ppm: Parastagonospora nodorum, 216 h
# Method in brief: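 Compounds in 3% acetone, then 50/50 acetone–water with 250 ppm Trem 014, sprayed to run-off at 200 ppm (500 g/ha; some at 40 ppm) one day before spore inoculation. Held 48 h saturated at 20 °C, then 7 days at 20 °C; visual rating as % disease control vs untreated (0–100).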
# Alternaria solani = assay: Test E: tomato early blight, preventive spray on tomato seedlings, visual disease rating; conditions: for pest or weed control at 200 ppm: Alternaria solani, 168 h
# Method in brief: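 Seedlings sprayed to run-off with compound in acetone/water plus 250 ppm Trem 014 (200 ppm ≈ 500 g/ha), inoculated with spores next day. Held 48 h saturated at 27 °C, then 5 days at 20 °C; visual rating 0–100% disease control relative to controls.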
# Botrytis cinerea = assay: Test F: tomato botrytis, preventive spray on tomato seedlings, visual disease rating; conditions: for pest or weed control at 200 ppm: Botrytis cinerea, 120 h
# Method in brief: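 Tomato seedlings sprayed to run-off with compound suspended in acetone/water (50/50) plus 250 ppm Trem 014, at 200 ppm (≈500 g/ha) or 40 ppm where marked. Inoculated next day with B. cinerea spores, 48 h saturated atmosphere at 20 °C, then 3 days at 24 °C. Visual rating, 0–100% disease control relative to controls.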
# Rhizoctonia oryzae = assay: Test G: turf brown patch, preventive spray on creeping bent grass seedlings, visual disease rating; conditions: for pest or weed control at 200 ppm: Waitea circinata, in Agrostis stolonifera, 120 h
# Description: (§1) General protocol for preparing test suspensions for Tests A-H: The test compounds were first dissolved in acetone in an amount equal to 3% of the final volume and then suspended at the desired concentration (in ppm) in acetone and purified water (50/50 mix) containing 250 ppm of the surfactant Trem® 014 (polyhydric alcohol esters). The resulting test suspensions were then used in tests A-H. Spraying a 200 ppm test suspension to the point of run-off on the test plants was the equivalent of a rate of 500 g/ha.
# The test suspension was sprayed to the point of run-off on creeping bent grass seedlings. The following day the seedlings were inoculated with a spore suspension of Rhizoctonia oryzae (the causal agent of turf brown patch) and incubated in a saturated atmosphere at 27° C. for 48 h, and then moved to a growth chamber at 27° C. for 3 days, after which time disease ratings were visually made.
# (§2) Results for Tests A-H are given in Table A. In the table, a rating of 100 indicates 100% disease control and a rating of 0 indicates no disease control (relative to the controls). A dash (-) indicates no test results. All results are for compounds tested at 200 ppm except where the compound number is followed by “*” which indicates the compound was tested at 40 ppm.
# Plasmopara viticola = assay: Test H: grape downy mildew, spray after inoculation of grape seedlings, visual disease rating
# Description: as §1
# Grape seedlings were inoculated with a spore suspension of Plasmopara viticola (the causal agent of grape downy mildew) and incubated in a saturated atmosphere at 20° C. for 24 h. After a short drying period, the test suspension was sprayed to the point of run-off on the grape seedlings, and then moved to a growth chamber at 20° C. for 6 days, after which time the test units were placed back into a saturated atmosphere at 20° C. for 24 h. Upon removal, disease ratings were visually made.
# as §2
# [3] = 200 ppm, 100 = 100% disease control, 0 = no control
# [4] = 40 ppm (compound number followed by *)
smiles,measurement,setting,value
CCOC(=O)c1cnc(C)c(-c2ccccc2)c1-c1cc(F)cc(F)c1 [Compound 8],Test A rating (% disease control),[1]; [3],98%
same,Test B rating (% disease control),[2]; [3],0%
same,Test C rating (% disease control),Septoria tritici; [3],0%
same,Test D rating (% disease control),Septoria nodorum; [3],0%
same,Test E rating (% disease control),Alternaria solani; [3],0%
same,Test F rating (% disease control),Botrytis cinerea; [3],0%
same,Test G rating (% disease control),Rhizoctonia oryzae; [3],0%
same,Test H rating (% disease control),Plasmopara viticola; [3],17%
"COc1cc(OC)cc(-c2c(-c3ccccc3)cnc(C)c2-c2ccc(F)cc2)c1 [Compound 34, 4-(3,5-dimethoxyphenyl)-3-(4-fluorophenyl)-5-phenyl-2-methylpyridine]",pest or weed control at 200 ppm,[1]; [3],96%
same,pest or weed control at 200 ppm,[2]; [3],96%
same,pest or weed control at 200 ppm,"Septoria tritici; Zymoseptoria tritici, 504 h, 200 ppm, 100 = 100% disease control, 0 = no control",100%
same,pest or weed control at 200 ppm,Septoria nodorum; [3],77%
same,pest or weed control at 200 ppm,Alternaria solani; [3],96%
same,pest or weed control at 200 ppm,Botrytis cinerea; [3],99%
same,pest or weed control at 200 ppm,Rhizoctonia oryzae; [3],63%
same,pest or weed control at 200 ppm,"Plasmopara viticola; Plasmopara viticola, 192 h, 200 ppm, 100 = 100% disease control, 0 = no control",0%
COc1cc(OC)cc(-c2c(C(C)(C)O)c[n+]([O-])c(C)c2-c2ccccc2)c1 [Compound 52],Test A rating (% disease control),[1]; [3],25%
same,Test B rating (% disease control),[2]; [3],0%
same,Test D rating (% disease control),Septoria nodorum; [3],0%
same,Test E rating (% disease control),Alternaria solani; [3],0%
same,Test F rating (% disease control),Botrytis cinerea; [3],0%
same,Test G rating (% disease control),Rhizoctonia oryzae; [3],0%
same,Test H rating (% disease control),Plasmopara viticola; [3],0%
"COc1cc(OC)cc(-c2c(-c3ccc(F)cc3)c(C)nc(Cl)c2C2CCCC2)c1 [Compound 49, 2-chloro-3-cyclopentyl-4-(3,5-dimethoxyphenyl)-5-(4-fluorophenyl)-6-methylpyridine]",pest or weed control at 200 ppm,[1]; [3],0%
same,pest or weed control at 200 ppm,[2]; [3],0%
same,pest or weed control at 200 ppm,Septoria nodorum; [3],0%
same,pest or weed control at 200 ppm,Alternaria solani; [3],16%
same,pest or weed control at 200 ppm,Botrytis cinerea; [3],0%
same,pest or weed control at 200 ppm,Rhizoctonia oryzae; [3],0%
COc1cc(OC)cc(-c2c(C(C)(C)O)cnc(C)c2-c2ccccc2F)c1 [Compound 18],Test A rating (% disease control),[1]; [3],98%
same,Test B rating (% disease control),[2]; [3],99%
same,Test C rating (% disease control),Septoria tritici; [3],100%
same,Test D rating (% disease control),Septoria nodorum; [3],0%
same,Test F rating (% disease control),Botrytis cinerea; [3],97%
same,Test G rating (% disease control),Rhizoctonia oryzae; [3],47%
same,Test H rating (% disease control),Plasmopara viticola; [3],0%
COc1cc(OC)cc(-c2c(C3CCCCC3)cnc(C)c2-c2ccc(F)cc2)c1 [Compound 47],Test A rating (% disease control),[1]; [3],91%
same,Test B rating (% disease control),[2]; [3],97%
same,Test D rating (% disease control),Septoria nodorum; [3],0%
same,Test E rating (% disease control),Alternaria solani; [3],67%
same,Test F rating (% disease control),Botrytis cinerea; [3],96%
same,Test G rating (% disease control),Rhizoctonia oryzae; [3],99%
COc1cc(OC)cc(-c2c(C(C)C)cnc(C)c2-c2c(F)cc(F)cc2F)c1 [Compound 48],Test A rating (% disease control),[1]; [4],98%
same,Test B rating (% disease control),[2]; [4],100%
same,Test D rating (% disease control),Septoria nodorum; [4],0%
same,Test E rating (% disease control),Alternaria solani; [4],99%
same,Test F rating (% disease control),Botrytis cinerea; [4],98%
same,Test G rating (% disease control),Rhizoctonia oryzae; [4],100%
"COc1cc(OC)cc(-c2c(C3CCCC3)cnc(C)c2-c2ccc(F)cc2)c1 [Compound 50, 5-cyclopentyl-4-(3,5-dimethoxyphenyl)-3-(4-fluorophenyl)-2-methylpyridine]",pest or weed control at 200 ppm,[1]; [3],92%
same,pest or weed control at 200 ppm,[2]; [3],99%
same,pest or weed control at 200 ppm,Septoria nodorum; [3],60%
same,pest or weed control at 200 ppm,Alternaria solani; [3],100%
same,pest or weed control at 200 ppm,Botrytis cinerea; [3],97%
same,pest or weed control at 200 ppm,Rhizoctonia oryzae; [3],98%
COc1cc(OC)cc(-c2c(C(C)(C)O)cnc(C)c2-c2c(F)cccc2F)c1 [Compound 42],Test A rating (% disease control),[1]; [3],100%
same,Test B rating (% disease control),[2]; [3],100%
same,Test C rating (% disease control),Septoria tritici; [3],100%
same,Test D rating (% disease control),Septoria nodorum; [3],98%
same,Test F rating (% disease control),Botrytis cinerea; [3],97%
same,Test G rating (% disease control),Rhizoctonia oryzae; [3],86%
same,Test H rating (% disease control),Plasmopara viticola; [3],0%
COc1cc(OC)cc(-c2c(C(C)C)cnc(C)c2-c2c(F)cccc2F)c1 [Compound 45],Test A rating (% disease control),[1]; [3],99%
same,Test B rating (% disease control),[2]; [3],100%
same,Test C rating (% disease control),Septoria tritici; [3],100%
same,Test D rating (% disease control),Septoria nodorum; [3],0%
same,Test E rating (% disease control),Alternaria solani; [3],94%
same,Test F rating (% disease control),Botrytis cinerea; [3],100%
same,Test G rating (% disease control),Rhizoctonia oryzae; [3],99%
C=C(C)c1cnc(C)c(-c2c(F)cc(F)cc2F)c1-c1cc(OC)cc(OC)c1 [Compound 43],Test A rating (% disease control),[1]; [3],100%
same,Test B rating (% disease control),[2]; [3],100%
same,Test C rating (% disease control),Septoria tritici; [3],100%
same,Test D rating (% disease control),Septoria nodorum; [3],78%
same,Test E rating (% disease control),Alternaria solani; [3],100%
same,Test F rating (% disease control),Botrytis cinerea; [3],100%
same,Test G rating (% disease control),Rhizoctonia oryzae; [3],100%
CCOC(=O)c1cnc(C)c(-c2ccccc2)c1-c1cc(OC)cc(OC)c1Cl [Compound 25],Test A rating (% disease control),[1]; [4],0%
same,Test B rating (% disease control),[2]; [4],0%
same,Test C rating (% disease control),Septoria tritici; [4],0%
same,Test D rating (% disease control),Septoria nodorum; [4],0%
same,Test E rating (% disease control),Alternaria solani; [4],0%
same,Test F rating (% disease control),Botrytis cinerea; [4],84%
same,Test H rating (% disease control),Plasmopara viticola; [4],0%
COc1cc(OC)cc(-c2c(C3=CCCCC3)cnc(C)c2-c2ccc(F)cc2)c1 [Compound 46],Test A rating (% disease control),[1]; [3],81%
same,Test B rating (% disease control),[2]; [3],95%
same,Test D rating (% disease control),Septoria nodorum; [3],0%
same,Test E rating (% disease control),Alternaria solani; [3],31%
same,Test F rating (% disease control),Botrytis cinerea; [3],98%
same,Test G rating (% disease control),Rhizoctonia oryzae; [3],0%
CCc1ncc(C(C)(C)O)c(-c2cc(OC)cc(OC)c2)c1-c1ccccc1 [Compound 28],Test A rating (% disease control),[1]; [3],96%
same,Test B rating (% disease control),[2]; [3],28%
same,Test C rating (% disease control),Septoria tritici; [3],100%
same,Test D rating (% disease control),Septoria nodorum; [3],0%
same,Test E rating (% disease control),Alternaria solani; [3],93%
same,Test F rating (% disease control),Botrytis cinerea; [3],99%
same,Test H rating (% disease control),Plasmopara viticola; [3],0%
